Results: PubChem BioAssay (NCI)
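Protocol summary: plate cells (96-well), add compound at 5 concentrations, incubate 48 h, interpolate endpoints linearly. TGI: concentration producing complete growth inhibition.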

How the values were obtained:
Experiment in all cases: NCI-60 cell line screen, 48 h
[1] = tested on: 786-0 renal
[2] = tested on: A498 renal
[3] = tested on: A549 NSCLC
[4] = tested on: ACHN renal
[5] = tested on: BT-549 breast
[6] = tested on: CAKI-1 renal
[7] = tested on: CCRF-CEM leukemia
[8] = tested on: COLO 205 colon
[9] = tested on: DU-145 prostate
[10] = tested on: EKVX NSCLC
[11] = tested on: HCC-2998 colon
[12] = tested on: HCT-116 colon
[13] = tested on: HCT-15 colon
[14] = tested on: HL-60(TB) leukemia
[15] = tested on: HOP-62 NSCLC
[16] = tested on: HOP-92 NSCLC
[17] = tested on: HS 578T breast
[18] = tested on: HT29 colon
[19] = tested on: IGROV1 ovarian
[20] = tested on: LOX IMVI melanoma
[21] = tested on: M14 melanoma
[22] = tested on: MALME-3M melanoma
[23] = tested on: MCF7 breast
[24] = tested on: MDA-MB-231 breast
[25] = tested on: MDA-MB-435
[26] = tested on: MDA-N
[27] = tested on: MOLT-4 leukemia
[28] = tested on: NCI-H226 lung
[29] = tested on: NCI-H23 lung
[30] = tested on: NCI/ADR-RES ovarian
[31] = tested on: OVCAR-3 ovarian
[32] = tested on: OVCAR-4 ovarian
[33] = tested on: OVCAR-5 ovarian
[34] = tested on: OVCAR-8 ovarian
[35] = tested on: PC-3 prostate
[36] = tested on: RPMI-8226 leukemia
[37] = tested on: RXF 393 renal
[38] = tested on: SF-268 CNS
[39] = tested on: SF-295 CNS
[40] = tested on: SF-539 CNS
[41] = tested on: SK-MEL-2 melanoma
[42] = tested on: SK-MEL-28 melanoma
[43] = tested on: SK-MEL-5 melanoma
[44] = tested on: SK-OV-3 ovarian
[45] = tested on: SNB-19 CNS
[46] = tested on: SNB-75 CNS
[47] = tested on: SW-620 colon
[48] = tested on: T-47D breast
[49] = tested on: TK-10 renal
[50] = tested on: U251 CNS
[51] = tested on: UACC-257 melanoma
[52] = tested on: UACC-62 melanoma
[53] = tested on: UO-31 renal
[54] = tested on: K-562 leukemia
[55] = tested on: KM12 colon
[56] = tested on: NCI-H460 lung
[57] = tested on: SN12C renal
[58] = tested on: SR leukemia

`Cn1cnc2c(sc3nc4ccccc4n32)c1=N` was tested, and the TGI [1] was over 100 µM, the TGI [2] was over 100 µM and the TGI [3] was over 100 µM. The TGI [4] was over 100 µM, the TGI [5] was over 100 µM and the TGI [6] was over 100 µM. For the same compound, the TGI [7] was over 100 µM, the TGI [8] was over 100 µM and the TGI [9] was over 100 µM. It also gave a TGI [10] of over 100 µM, a TGI [11] of over 100 µM and a TGI [12] of over 100 µM. The TGI [13] was over 100 µM, the TGI [14] was over 100 µM and the TGI [15] was over 100 µM. It also gave a TGI [16] of over 100 µM, a TGI [17] of over 100 µM and a TGI [18] of over 100 µM. The TGI [19] was over 100 µM, the TGI [20] was over 100 µM and the TGI [21] was over 100 µM. The TGI [22] was over 100 µM, the TGI [23] was over 100 µM and the TGI [24] was over 100 µM. For the same compound, the TGI [25] was over 100 µM, the TGI [26] was over 100 µM and the TGI [27] was over 100 µM. For the same compound, the TGI [28] was over 100 µM, the TGI [29] was over 100 µM and the TGI [30] was over 100 µM. For the same compound, the TGI [31] was over 100 µM, the TGI [32] was over 100 µM and the TGI [33] was over 100 µM. The TGI [34] was over 100 µM, the TGI [35] was over 100 µM and the TGI [36] was over 100 µM. The TGI [37] was over 100 µM, the TGI [38] was over 100 µM and the TGI [39] was over 100 µM. The TGI [40] was over 100 µM, the TGI [41] was over 100 µM and the TGI [42] was over 100 µM. The TGI [43] was over 100 µM, the TGI [44] was over 100 µM and the TGI [45] was over 100 µM. The TGI [46] was 73.8 µM, the TGI [47] was over 100 µM and the TGI [48] was over 100 µM. The TGI [49] was over 100 µM, the TGI [50] was over 100 µM and the TGI [51] was over 100 µM. It also gave a TGI [52] of over 100 µM and a TGI [53] of over 100 µM.

`CC(C)(C)OC[C@H](O)CC#N` gave a TGI [1] of over 100 µM, a TGI [2] of over 100 µM and a TGI [3] of over 100 µM. The TGI [4] was over 100 µM, the TGI [5] was over 100 µM and the TGI [6] was over 100 µM. For the same compound, the TGI [7] was over 100 µM, the TGI [8] was over 100 µM and the TGI [9] was over 100 µM. It also gave a TGI [10] of over 100 µM, a TGI [11] of over 100 µM and a TGI [12] of over 100 µM. The TGI [13] was over 100 µM, the TGI [14] was over 100 µM and the TGI [15] was over 100 µM. It also gave a TGI [17] of over 100 µM, a TGI [18] of over 100 µM and a TGI [54] of over 100 µM. The TGI [55] was over 100 µM, the TGI [20] was over 100 µM and the TGI [21] was over 100 µM. It also gave a TGI [22] of over 100 µM, a TGI [23] of over 100 µM and a TGI [24] of over 100 µM. For the same compound, the TGI [25] was over 100 µM, the TGI [26] was over 100 µM and the TGI [27] was over 100 µM. The TGI [28] was over 100 µM, the TGI [29] was over 100 µM and the TGI [56] was over 100 µM. For the same compound, the TGI [31] was over 100 µM, the TGI [32] was over 100 µM and the TGI [33] was over 100 µM. The TGI [34] was over 100 µM, the TGI [35] was over 100 µM and the TGI [36] was over 100 µM. It also gave a TGI [37] of over 100 µM, a TGI [38] of over 100 µM and a TGI [39] of over 100 µM. For the same compound, the TGI [40] was over 100 µM, the TGI [41] was over 100 µM and the TGI [42] was over 100 µM. It also gave a TGI [43] of over 100 µM, a TGI [44] of over 100 µM and a TGI [57] of over 100 µM. The TGI [45] was over 100 µM, the TGI [46] was over 100 µM and the TGI [58] was over 100 µM. The TGI [47] was over 100 µM, the TGI [48] was over 100 µM and the TGI [49] was over 100 µM. The TGI [50] was over 100 µM, the TGI [51] was over 100 µM and the TGI [52] was over 100 µM. For the same compound, the TGI [53] was over 100 µM.
